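Where inhibition never reached the appropriate level, the endpoint shown equals the highest concentration tested. Otherwise, values were interpolated linearly from a five-concentration, 48-hour dose response in 96-well plates. Abbreviation: GI50, concentration required for 50% inhibition of growth. The concentration for full growth arrest is given as TGI.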
Tests used:
Test in all cases: NCI tumour cell line growth inhibition, 48 h
HCC-2998 colon = test system: HCC-2998 colon
HCT-116 colon = test system: HCT-116 colon
HOP-92 NSCLC = test system: HOP-92 NSCLC
HT29 colon = test system: HT29 colon
NCI-H460 lung = test system: NCI-H460 lung
NCI/ADR-RES ovarian = test system: NCI/ADR-RES ovarian
OVCAR-3 ovarian = test system: OVCAR-3 ovarian
OVCAR-5 ovarian = test system: OVCAR-5 ovarian
SW-620 colon = test system: SW-620 colon
COLO 205 colon = test system: COLO 205 colon

| Compound | TGI (HCC-2998 colon) [µM] | TGI (HCT-116 colon) [µM] | TGI (HOP-92 NSCLC) [µM] | TGI (HT29 colon) [µM] | TGI (NCI-H460 lung) [µM] | TGI (NCI/ADR-RES ovarian) [µM] | TGI (OVCAR-3 ovarian) [µM] | TGI (OVCAR-5 ovarian) [µM] | TGI (SW-620 colon) [µM] | GI50 (COLO 205 colon) [µM] | TGI (COLO 205 colon) [µM] | GI50 (HT29 colon) [µM] | GI50 (NCI-H460 lung) [µM] | GI50 (OVCAR-3 ovarian) [µM] | GI50 (SW-620 colon) [µM] | GI50 (HCC-2998 colon) [µM] | GI50 (HCT-116 colon) [µM] | GI50 (NCI/ADR-RES ovarian) [µM] | GI50 (OVCAR-5 ovarian) [µM] |
| --- | --- | --- | --- | --- | --- | --- | --- | --- | --- | --- | --- | --- | --- | --- | --- | --- | --- | --- | --- |
| COC(=O)/C(=N\NC(=S)NN)C(C(=O)OC)C(=O)C(=O)Nc1cccc(C(F)(F)F)c1 (configuration not stated) | > 100 | > 100 | > 100 | > 100 | > 100 | > 100 | > 100 | > 100 | > 100 | – | – | – | – | – | – | – | – | – | – |
| Oc1ccc(-c2cn3cc(Cl)sc3n2)cc1 | – | – | – | 78.8 | 53.5 | – | 64.1 | – | > 100 | 19.8 | 43.4 | 24.2 | 12.9 | 22.5 | 56.9 | – | – | – | – |
| CN(C)C1=NC2=S(SC(Nc3ccccc3)=N2)S1 (configuration not stated) | > 100 | > 100 | 59.8 | > 100 | > 100 | – | – | > 100 | > 100 | – | – | – | – | – | – | – | – | – | – |
| NC1=CC(=O)c2nc3ccccc3c3ccnc1c23 | 11.5 | > 100 | – | 21.2 | 4.6 | 69.4 | > 51.9 | 62 | > 100 | – | – | 3.52 | 0.0908 | 3.6 | 3.14 | 0.497 | 3.99 | 7.33 | 13.8 |
| O=C(O)c1ccccc1-c1ccccc1C(=O)Nc1ccc2c(c1)[nH]c(=O)c1ccccc12 | – | > 100 | > 100 | > 100 | > 100 | > 100 | > 100 | > 100 | > 100 | – | > 100 | – | – | – | – | – | – | – | – |
| Cc1c(C(=O)/C=C/c2c(Cl)cccc2Cl)c(=O)n(-c2ccccc2)n1C | 65.8 | > 100 | 74.6 | > 100 | 82.7 | – | 73.5 | > 100 | 25.9 | – | > 100 | – | – | – | – | – | – | – | – |
| N#C/C(=C1C=C/C(=N\O)C(Cl)=C\1)c1ccccc1 | 15.8 | 11.4 | – | 10.9 | 11.9 | 5.17 | 17 | 13.7 | 12.9 | 7.52 | 24.4 | 3.35 | 2.82 | 3.31 | 1.42 | 4.27 | 0.382 | 1.66 | 3.71 |
| O=C(O)c1cccc2cccc(C(=O)O)c12.[Hg] | 25.3 | 29.3 | – | 27.2 | 31.7 | – | 30 | 33.5 | 32 | 3.1 | 14.5 | 13.8 | 16.4 | 15.3 | 12.7 | 12 | 15.9 | – | 19.4 |
| COC1OC(COS(=O)(=O)c2ccc(C)cc2)C(O)C(OS(=O)(=O)c2ccc(C)cc2)C1OS(=O)(=O)c1ccc(C)cc1 (configuration not stated) | > 100 | > 100 | – | > 100 | > 100 | – | > 100 | > 100 | > 100 | – | > 100 | – | – | – | – | – | – | – | – |
